According to US20230310412A1, “USE OF CASPASE INHIBITOR FOR ALLEVIATING OR TREATING OSTEOARTHRITIS” (LG CHEM, LTD., priority 2020, published 2023):
Entries after “also recorded” stand apart in the source; their conditions may differ.

What was measured:
[1] = tested on: osteoarthritis-induced beagle dogs; experiment: Efficacy on improving walking ability (lameness score) in animal model of osteoarthritis; assay type: in vivo
Experimental: Beagle dogs were purchased from Orient Bio, and healthy animals were used for the experiment after a one-week quarantine cycle. After 1 week of recovery after surgical anterior cruciate ligament transection with medial meniscectomy, forced exercise for 30 minutes every day was carried out to induce osteoarthritis. The surgery for inducing osteoarthritis was performed under anesthesia after the animals were depilated on both knees. After broad disinfection of the incision site with povidone and 70% ethanol, the skin of the right knee was incised. By blunt dissection of the surrounding tissues, the articular surface of the distal end of femur was exposed. An instrument portal was created on the medial articular surface, and the meniscus and anterior cruciate ligament were excised. Wound closure was performed by the use of 4-0 nylon suture. […] The assessment about walking ability for evaluating the pain status and functional level of osteoarthritis animals was carried out according to the method proposed by Pashuck et al. (Troy D. Pashuck et al., J Orthop Res, 2016, 34(10): 1772-1779), and the lameness score as represented in Table 1 was recorded until the end of the experiment. […] The efficacy of nivocasan in an animal model of osteoarthritis was measured by evaluating the lameness score twice a week after a single intra-articular administration. […]

[2] = tested on: beagle dog model of osteoarthritis; experiment: MRI evaluation of effect on joint structure in animal model of osteoarthritis; assay type: in vivo; settings: MRI before vs 3 months after single intra-articular administration; FIG. 6
Experimental: In a beagle dog model of osteoarthritis induced by daily forced exercise after surgical anterior cruciate ligament transection with medial meniscectomy, the effect on joint structure was evaluated by taking an MRI (SIGNA Pioneer 3.0T MR, GE Healthcare Co., USA) of the joint before a single intra-articular administration and 3 months thereafter.

[3] = tested on: beagle dog model of osteoarthritis; experiment: Histopathological evaluation of effect on joint in animal model of osteoarthritis; assay type: in vivo
Experimental: In a beagle dog model of osteoarthritis induced by daily forced exercise after surgical anterior cruciate ligament transection with medial meniscectomy, an autopsy was performed 3 months after a single intra-articular administration, and the joint was collected and fixed. The fixed tissue was subjected to conventional tissue processing such as demineralization, trimming, dehydration, paraffin embedding, sectioning and the like to prepare a specimen for histopathological examination, followed by hematoxylin eosin and safranin-o staining. An optical microscopy (Olympus BX53, Japan) was used to observe histopathological changes.
Histopathological evaluation was performed by comparing between groups with scoring as shown in Tables 3 to 8 according to the method proposed by Cook et al. (Cook et al., Osteoarthritis Cartilage. 2010; 18 Suppl 3:S66-S79), and the results are represented in FIG. 7.

[4] = tested on: IL-1β secretion in human peripheral blood mononuclear cells (PBMCs); experiment: Suppressive efficacy against LPS-induced IL-1β secretion in human-derived PBMC; assay type: cell-based; settings: FIG. 2
Experimental: The inhibitory effects of nivocasan on inflammasome activation in human peripheral blood mononuclear cells (PBMCs) were evaluated by measuring LPS-induced IL-1β secretion. Freshly isolated PBMCs were plated at 2.5×10^5 cells/well (24-well plate) in RPMI-1640 media and treated with nivocasan or DMSO for 30 minutes, followed by incubation with 100 ng/ml LPS for 24 hours to induce inflammation. Levels of IL-1β in PBMC supernatants was measured by ELISA (R&D Systems Quantikine human IL-1β; detection limit: 7.8 pg/ml), and the results are represented in FIG. 2.

[5] = tested on: IL-1β secretion in THP-1 cells; experiment: Suppressive efficacy against LPS/nigericin-induced IL-1β secretion in THP-1 cells; assay type: cell-based, human; settings: PMA-differentiated, LPS 100 ng/ml 24 h, compound 30 min, then 5 μM nigericin & 1 mM ATP 1 h, ELISA, FIG. 1
Experimental: To evaluate the inflammation blocking effects of nivocasan, IL-1β secretion was measured in THP-1 cells under conditions in which inflammation was induced by lipopolysaccharide (LPS)/nigericin treatment. The day before LPS treatment, THP-1 cells were plated at 2.5×10^5 cells/well (24-well plate) in RPMI-1640 media and treated with 0.5 μM phorbol 12-myristate 13-acetate (PMA) for macrophage differentiation during overnight culture. The media was then changed with Opti-MEM media and the cells were incubated with LPS 100 ng/ml (the first inflammation signal for […] up-regulation) for 24 hours. The cells were then washed with PBS twice and treated with nivocasan or DMSO for 30 minutes in Opti-MEM media, followed by incubation with 5 μM nigericin & 1 mM ATP for 1 hour to activate inflammasome (NLRP3 activation and IL-1β secretion). Secreted IL-1β was measured from cell media by using R&D Systems Quantikine human IL-1β (detection limit: 7.8 pg/ml), and the results are represented in FIG. 1.

[6] = tested on: human chondrocytes; experiment: Protective effect on TNF-α-induced apoptosis in human-derived chondrocytes; assay type: cell-based; settings: human normal chondrocytes, compound 30 min, then 10 ng/ml TNF-α and 1 μg/ml actinomycin D 18 h; Cell Death Detection ELISA; FIG. 3
Experimental: The protective effect of nivocasan on TNF-α-induced apoptosis was evaluated in human chondrocytes. Human normal chondrocytes were plated at 1×10^5 cells/well (collagen-coated 24-well plate) in chondrocyte media (Prigrow IV Medium, Applied Biological Materials Inc.) and incubated overnight. The cells were treated with nivocasan or DMSO for 30 minutes, followed by incubation with 10 ng/ml human recombinant TNF-α and 1 μg/ml actinomycin D for 18 hours to induce apoptosis. Apoptosis was measured by using Cell Death Detection ELISA kit, and the results are represented in FIG. 3.

C[C@H](NC(=O)C(=O)Nc1ccccc1C(C)(C)C)C(=O)N[C@@H](CC(=O)O)C(=O)COc1c(F)c(F)cc(F)c1F [emricasan, N-(2-tert-butylphenyl)-2-oxoglycyl-N-[1(S)-(carboxymethyl)-2-oxo-3-(2,3,5,6-tetrafluorophenoxy)propyl]-L-alaninamide, reference compound]
improvement of walking ability (lameness score), compared with nivocasan ([1]; single intra-articular administration of 10 mg, FIG. 5): improvement of a walking ability similar to that of 10 mg of nivocasan | bone marrow lesion (MRI score) [2]: improvement | synovitis (MRI score) [2]: improvement

CC(C)[C@@]1(C(=O)N[C@H]2CC(=O)O[C@]2(O)CF)CC(c2nccc3ccccc23)=NO1 [nivocasan, (R)—N-((2S,3S)-2-(fluoromethyl)-2-hydroxy-5-oxotetrahydrofuran-3-yl]-5-isopropyl-3-(isoquinolin-1-yl)-4,5-dihydroisoxazole-5-carboxamide]
histopathology evaluation of the joints ([3]; autopsy 3 months after single intra-articular administration, FIG. 7): dose-related histopathological improvement | improving cartilage structure ([3]; single administration, summary of Examples 4 to 6): effective in improving cartilage structure | concentration showing maximum effect on LPS-induced IL-1β secretion ([4]; 100 ng/ml LPS 24 h): 0.3 µM | suppression of LPS-induced IL-1β secretion ([4]; compound 30 min, then 100 ng/ml LPS 24 h, ELISA): suppressed LPS-induced IL-1β secretion from PBMCs in a dose dependent manner | improvement of walking ability (lameness score) ([1]; single intra-articular administration 0.1, 0.3, 1, 3 and 10 mg/knee, scored twice a week for 3 months, FIG. 4): showed the efficacy of the improvement of walking ability in a dose-dependent manner; also recorded: effective in improving walking ability | bone marrow lesion (MRI score) [2]: improvement | synovitis (MRI score) [2]: improvement | suppression of LPS/nigericin-induced IL-1β secretion [5]: suppressed LPS/nigericin-induced IL-1β secretion in THP-1 cells in a dose-dependent manner | prevention of TNF-α-induced apoptosis [6]: prevented TNF-α-induced apoptosis in human chondrocytes in a dose-dependent manner
